Test results as given in patent publication US20020137154A1, “Methods for improving cell growth and alcohol production during fermentation” (priority 2000, published 2002).

How the values were obtained:
Type in all cases: cell-based
[1] = tested on: recombinant Escherichia coli KO11; experiment: Batch fermentation of E. coli KO11 in Luria broth and xylose with nutrient additives: ethanol production and cell growth; conditions: LB+xylose
Description: (§1) Two types of media were tested: 1% CSL and Luria broth (LB). Each contained 97 g of either xylose or glucose per liter. Luria Broth consists of, per liter: 10 g Difco® Tryptone, 5 g Difco® Yeast Extract and 5 g NaCl. The 1% CSL medium consists of Corn Steep Liquor (1% w/v) plus mineral salts (mineral salts per liter: 1 g of KH2PO4. 0.5 g of K2HPO4, 3.1 g of (NH4)2SO4, 0.4 g of MgCl2·6H2), and 20 mg FeCl3·6H2O).
(§2) Luria Broth was prepared by autoclaving a 2× nutrient stock containing, per liter: 20 g Difco® Tryptone, 10 g Difo® Yeast Extract, and 10 g NaCl. Sugars (xylose or glucose) were autoclaved separately. A 1% CSL medium was prepared as follows: Commercial Corn Steep Liquor (CSL; 50% dry weight/50% water) was diluted with tap water to make a 20X stock containing 100 g dry weight of Corn Steep Liquor/L and was adjusted to pH 7.2 with NaOH (50%). After sterilization by autoclaving, the 20X CSL stock was clarified by centrifugation at 5000×g for 10 minutes. Magnesium was added as a 100× stock solution (40 g/L MgCl2·6H2O). Iron was added as a 1000× stock solution made by dissolving 20 g FeCl3·6H2O in 175 mL of HCl and adjusting to 1 L with sterile water. Nitrogen, sulfur and phosphorus were added using a 20× stock solution containing the following (per liter): 20 g of KH2PO4, 10 g of K2HPO4 and 62 g of (NH4)2SO4. Stock solutions containing minerals were sterilized separately by autoclaving. Final media was prepared by adding 750 mL of water to 1 L bottle containing 100 g of xylose or glucose.
(§3) Inocula were grown in same media used for fermentation and were prepared as follows. Three colonies from a fresh plate were used to inoculate seed cultures: 250-mL flask containing 100 mL medium. These cultures were grown with agitation (120 rpm) for 12-16 hours at 35° C. to a final OD550nm of approximately 2.0-2.5. Cells were harvested by centrifugation at 5000×g for 5 minutes, and resuspended in fresh media to an OD550nm of 0.1. The resulting suspension was distributed into 500-mL beakers containing 345 ml each of fermentation medium. Acetaldehyde was added as indicated. Batch fermentations (35° C., 100 rpm) were maintained at pH 6.5 by the automatic addition of 2N KOH. Cell mass, ethanol, and base addition (2N KOH) were recorded during 96 hours of incubation.
(§4) Equivalent amounts of distilled water were added instead of the acetaldehyde in control experiments.
(§5) Additives (e.g., as listed in Table 1) were dissolved in 5 mL di-H2O. Solutions with pH lower than 5 were neutralized to pH 6.5 with 2N KOH. Nutritional supplements were then filter-sterilized (0.45 μm filter disk) directly into the fermentation vessel containing the culture. The final concentration of all additives in the culture medium was 2 g/L unless otherwise indicated.
(§6) Cell mass was estimated by measuring OD550nm using Baush & Lomb® Spectronic 70 spectrophotometer. […] Ethanol was measured by gas chromatography using a Varian® 3400 CX gas chromatograph with 1-propanol as an internal standard.
(§7) Tables 1, 3, and 5 show time to completion of fermentation, ethanol production, and volumetric productivity of the fermentation for all concentrations of the compound and the control. Maximum ethanol production is shown in grams/liter (g/L). The ethanol yield is shown in grams of ethanol/grams of added sugar. Maximum volumetric productivity is shown in grams ethanol/(liter)(hour). The average productivity is calculated form the start of fermentation to the completion of fermentation is grams ethanol/(liter)hour).
(§8) Tables 2, 4, and 6 show the initial growth of the cells (OD taken after the first 24 hours of fermentation) and the maximum cell density (the time which culture reaches the maximum OD value).
(§9) Acetaldehyde was added to the fermentation medium at five different concentrations and time points. […] Where two additions are indicated, the first volume was added at the start of fermentation and the second was added after 8 hours of fermentation.

[2] = tested on: recombinant Escherichia coli KO11; experiment: Batch fermentation of E. coli KO11 in 1% CSL medium and xylose with nutrient additives: ethanol production and cell growth; conditions: additive 2 g/L unless indicated; for activity at 2000 µg/mL: Escherichia coli
Description: as §1, §2
as §3, with “incubation. […]” for “incubation.”
as §5, §6, §7
Tables 2, 4, and 6 show the initial growth of the cells (OD taken after the first 24 hours of fermentation) and the maximum cell density (the time which culture reaches the maximum OD value). […]

[3] = tested on: recombinant Escherichia coli KO11; experiment: Batch fermentation of E. coli KO11 in 1% CSL medium and glucose with nutrient additives: ethanol production and cell growth; conditions: additive 2 g/L unless indicated; for activity at 2000 µg/mL: Escherichia coli
Description: as §1, §2, §3, §4, §5, §6, §7, §8, §9

[4] = additive 2 g/L unless indicated

Q: How did the “Ethanol Production Maximum” value ([1]; 2 g) turn out when `CC(=O)C(=O)O` [Pyruvate, pyruvate] was run?
A: The value was 44.35 g/L.

Q: And the “Ethanol Production Maximum % Control” value ([1]; 2 g)?
A: Its value is 102.96%.

Q: What about the Ethanol yield ([1]; 2 g) of the same compound?
A: The Ethanol yield was 0.457 grams of ethanol/grams of added sugar.

Q: What about the “Initial Growth (OD at 24 h) % Control” value ([1]; 2 g) of the same compound?
A: The value was 113.09%.

Q: What about the “Initial Growth (OD at 24 h) OD” value ([1]; 2 g) of the same compound?
A: The value was 11.30 OD.

Q: What about the “Maximum Cell Density % Control” value ([1]; 2 g) of the same compound?
A: The value was 102.29%.

Q: And the “Maximum Cell Density OD” value ([1]; 2 g)?
A: The value was 11.30 OD.

Q: And the “Maximum Cell Density Time” value ([1]; 2 g)?
A: The value was 24 h.

Q: And the Time to completion ([1]; 2 g)?
A: The Time to completion was 48 h.

Q: What about the “Volumetric Productivity Average” value ([1]; 2 g) of the same compound?
A: The value was 0.924 grams ethanol/(liter)(hour).

Q: What about the “Volumetric Productivity Average % Control” value ([1]; 2 g) of the same compound?
A: Its value is 102.96%.

Q: What about the “Volumetric Productivity Maximum” value ([1]; 2 g) of the same compound?
A: The value was 1.284 grams ethanol/(liter)(hour).

Q: And the “Volumetric Productivity Maximum % Control” value ([1]; 2 g)?
A: Its value is 111.47%.

Q: And the “Ethanol Production Maximum” value ([1]; 4 g)?
A: Its value is 45.13 g/L.

Q: And the “Ethanol Production Maximum % Control” value ([1]; 4 g)?
A: Its value is 104.76%.

Q: And the Ethanol yield ([1]; 4 g)?
A: The Ethanol yield was 0.465 grams of ethanol/grams of added sugar.

Q: What about the “Initial Growth (OD at 24 h) % Control” value ([1]; 4 g) of the same compound?
A: The value was 114.64%.

Q: What about the “Initial Growth (OD at 24 h) OD” value ([1]; 4 g) of the same compound?
A: The value was 11.45 OD.

Q: And the “Maximum Cell Density % Control” value ([1]; 4 g)?
A: The value was 105.48%.

Q: What about the “Maximum Cell Density OD” value ([1]; 4 g) of the same compound?
A: Its value is 11.65 OD.

Q: And the “Maximum Cell Density Time” value ([1]; 4 g)?
A: The value was 48 h.

Q: And the Time to completion ([1]; 4 g)?
A: Its Time to completion is 48 h.

Q: What about the “Volumetric Productivity Average” value ([1]; 4 g) of the same compound?
A: The value was 0.940 grams ethanol/(liter)(hour).

Q: And the “Volumetric Productivity Average % Control” value ([1]; 4 g)?
A: Its value is 104.76%.

Q: And the “Volumetric Productivity Maximum” value ([1]; 4 g)?
A: Its value is 1.166 grams ethanol/(liter)(hour).

Q: What about the “Volumetric Productivity Maximum % Control” value ([1]; 4 g) of the same compound?
A: The value was 101.27%.

Q: What about the “Ethanol Production Maximum” value ([2]; 1% CSL+xylose) of the same compound?
A: The value was 44.42 g/L.

Q: And the Ethanol yield ([2]; 1% CSL+xylose)?
A: Its Ethanol yield is 0.457 grams of ethanol/grams of added sugar.

Q: What about the “Initial Growth (OD @ 24 h) OD” value ([2]; 1% CSL+xylose) of the same compound?
A: The value was 4.11 OD.

Q: And the “Maximum Cell Density Time” value ([2]; 1% CSL+xylose)?
A: Its value is 96 h.

Q: And the “Volumetric Productivity Average” value ([2]; 1% CSL+xylose)?
A: Its value is 0.617 grams ethanol/(liter)(hour).

Q: What about the “Volumetric Productivity Maximum” value ([2]; 1% CSL+xylose) of the same compound?
A: The value was 0.792 grams ethanol/(liter)(hour).

Q: And the activity at 2000 µg/mL ([2]; 24 h, 1% CSL+xylose, read-out: Initial Growth (OD @ 24 h) % Control)?
A: Its activity at 2000 µg/mL is 201%.

Q: And the activity at 2000 µg/mL ([2]; read-out: Ethanol Production Maximum % Control, 1% CSL+xylose)?
A: The activity at 2000 µg/mL was 148%.

Q: What about the activity at 2000 µg/mL ([2]; read-out: Volumetric Productivity Average % Control, 1% CSL+xylose) of the same compound?
A: The activity at 2000 µg/mL was 197%.

Q: And the activity at 2000 µg/mL ([2]; read-out: Volumetric Productivity Maximum % Control, 1% CSL+xylose)?
A: The activity at 2000 µg/mL was 215%.

Q: And the activity at 2000 µg/mL ([2]; 1% CSL+xylose, read-out: Maximum Cell Density % Control)?
A: The activity at 2000 µg/mL was 238%.

Q: What about the “Ethanol Production Maximum” value ([3]; 1% CSL+glucose) of the same compound?
A: Its value is 42.35 g/L.

Q: What about the Ethanol yield ([3]; 1% CSL+glucose) of the same compound?
A: Its Ethanol yield is 0.436 grams of ethanol/grams of added sugar.

Q: And the “Initial Growth (OD @ 24 h) OD” value ([3]; 1% CSL+glucose)?
A: The value was 3.46 OD.

Q: What about the “Maximum Cell Density OD” value ([3]; 1% CSL+glucose) of the same compound?
A: Its value is 3.83 OD.

Q: What about the “Volumetric Productivity Average” value ([3]; 1% CSL+glucose) of the same compound?
A: The value was 0.441 grams ethanol/(liter)(hour).

Q: And the “Volumetric Productivity Maximum” value ([3]; 1% CSL+glucose)?
A: The value was 0.663 grams ethanol/(liter)(hour).

Q: And the activity at 2000 µg/mL ([3]; 24 h, 1% CSL+glucose, read-out: Initial Growth (OD @ 24 h) % Control)?
A: Its activity at 2000 µg/mL is 129%.

Q: What about the activity at 2000 µg/mL ([3]; read-out: Ethanol Production Maximum % Control, 1% CSL+glucose) of the same compound?
A: The activity at 2000 µg/mL was 114%.

Q: And the activity at 2000 µg/mL ([3]; read-out: Volumetric Productivity Average % Control, 1% CSL+glucose)?
A: The activity at 2000 µg/mL was 114%.

Q: What about the activity at 2000 µg/mL ([3]; read-out: Volumetric Productivity Maximum % Control, 1% CSL+glucose) of the same compound?
A: Its activity at 2000 µg/mL is 129%.

Q: What about the activity at 2000 µg/mL ([3]; 1% CSL+glucose, read-out: Maximum Cell Density % Control) of the same compound?
A: The activity at 2000 µg/mL was 142%.

Q: What does the source list for `O=C(O)CCC(=O)C(=O)O` [a-KG, α-ketoglutarate]?
A: Ethanol Production Maximum [1, 4]: 42.47 g/L; Ethanol yield [1, 4]: 0.437 grams of ethanol/grams of added sugar; Initial Growth (OD at 24 h) % Control [1, 4]: 102.79%; Initial Growth (OD at 24 h) OD [1, 4]: 10.27 OD; Time to completion [1, 4]: 48 h; Ethanol Production Maximum ([2]; 1% CSL+xylose): 42.32 g/L; Ethanol Production Maximum % Control ([2]; 1% CSL+xylose): 140.70%; Ethanol yield ([2]; 1% CSL+xylose): 0.436 grams of ethanol/grams of added sugar; Initial Growth (OD @ 24 h) % Control ([2]; 1% CSL+xylose): 173.77%; Initial Growth (OD @ 24 h) OD ([2]; 1% CSL+xylose): 3.55 OD; Time to completion ([2]; 1% CSL+xylose): 72 h; Ethanol Production Maximum ([3]; 1% CSL+glucose): 40.33 g/L; Ethanol Production Maximum % Control ([3]; 1% CSL+glucose): 109.03%; Ethanol yield ([3]; 1% CSL+glucose): 0.415 grams of ethanol/grams of added sugar; Initial Growth (OD @ 24 h) % Control ([3]; 1% CSL+glucose): 123.05%; Initial Growth (OD @ 24 h) OD ([3]; 1% CSL+glucose): 3.29 OD; Time to completion ([3]; 1% CSL+glucose): 72 h
